Assay results reported in patent publication EP0534396B1, “2-Substituted indane-2-carboxyalkyl derivatives useful as inhibitors of enkephalinase and ace” (MERRELL PHARMACEUTICALS INC., priority 1991, dated 1993).

Legend:
[1] = molecular target: T1, Enkephalinase (Rattus norvegicus, UniProt P07861); assay: Enkephalinase inhibition, fluorometric enzyme assay; type: biochemical; conditions: enzyme partially purified from rat kidney; 50mM HEPES buffer (pH 7.4); 12 µM substrate dansyl-D-AlaGly(p-nitro)PheGly; 25°C
T1 construct: The enzyme is extracted from the microvilli fraction by using Triton X-100; from tissue; host or cells: rat kidney (microvilli fraction)
T1 sequence (P07861 1-750): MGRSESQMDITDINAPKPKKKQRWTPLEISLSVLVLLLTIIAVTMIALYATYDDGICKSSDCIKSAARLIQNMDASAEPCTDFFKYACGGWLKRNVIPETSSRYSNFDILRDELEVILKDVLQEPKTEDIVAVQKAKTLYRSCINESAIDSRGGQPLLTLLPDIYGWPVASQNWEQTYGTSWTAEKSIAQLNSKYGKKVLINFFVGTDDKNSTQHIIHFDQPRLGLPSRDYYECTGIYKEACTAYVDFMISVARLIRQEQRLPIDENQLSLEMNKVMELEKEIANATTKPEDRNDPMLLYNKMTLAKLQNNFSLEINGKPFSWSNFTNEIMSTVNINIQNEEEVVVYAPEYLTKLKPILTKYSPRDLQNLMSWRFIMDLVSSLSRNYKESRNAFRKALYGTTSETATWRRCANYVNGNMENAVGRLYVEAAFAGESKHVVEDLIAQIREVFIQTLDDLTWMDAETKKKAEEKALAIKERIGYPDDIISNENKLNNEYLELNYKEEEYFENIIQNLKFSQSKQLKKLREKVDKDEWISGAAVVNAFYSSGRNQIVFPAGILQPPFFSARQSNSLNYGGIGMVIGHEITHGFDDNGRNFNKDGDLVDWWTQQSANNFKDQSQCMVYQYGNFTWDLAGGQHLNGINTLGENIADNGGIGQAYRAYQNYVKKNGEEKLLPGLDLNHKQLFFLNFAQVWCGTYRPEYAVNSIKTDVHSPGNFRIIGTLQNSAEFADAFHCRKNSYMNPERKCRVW
From the text: Enkephalinase is partially purified from rat kidney. The enzyme is extracted from the microvilli fraction by using Triton X-100 according to the method of Malfroy and Schwartz [J.Biol.Chem. 259, 14365-14370 (1984)] or by using a proteolytic treatment according to the method of Almenoff and Orlowski [Biochem. 22, 590-599 (1983)]. The enzyme is further purified by anion exchange chromatography (Mono Q™ column, Pharmacia) using a Pharmacia FPLC system. The enzyme activity may be measured by the fluorometric methods of Florentin et al. [Anal.Biochem. 141, 62-69 (1984)] or of Almenoff and Orlowski [J.Neurochemistry 42, 151-157 (1984)]. The enzyme is assayed in 50mM HEPES buffer (pH 7.4) in a 3.0 mL reaction volume containing 12 µM of the substrate dansyl-D-AlaGly(p-nitro)PheGly (Km=40µM) at 25°C. The substrate (and inhibitor) is added from a concentrated stock solution in DMSO (up to 0.1 mL DMSO final volume). The enzyme in a small volume (approximately 0.1 µg of FPLC purified protein) is added to initiate the reaction and the rate of fluorescense increase is recorded continuously using a fluorometer (excitation at 339nm, emission at 562nm).

[2] = molecular target: ACE (Homo sapiens, UniProt P12821); assay: ACE inhibition, spectrophotometric enzyme assay; type: biochemical; conditions: spectrophotometric substrate of Holmquist et al.; buffer system of Ryan
From the text: The enzymatic activity of ACE is monitored using the spectrophotometric substrate described by Holmquist et al. [Anal.Biochem. 95, 540-548 (1979)] and the buffer system described by Ryan [Methods of Enzymatic Analysis, 3rd ed., H. U. Bergmeyer, editor; vol. V, Verlag Chemie, Weinheim, 1983, pp. 20-34].

Chain of ACE (P12821 30-1306, species assumed): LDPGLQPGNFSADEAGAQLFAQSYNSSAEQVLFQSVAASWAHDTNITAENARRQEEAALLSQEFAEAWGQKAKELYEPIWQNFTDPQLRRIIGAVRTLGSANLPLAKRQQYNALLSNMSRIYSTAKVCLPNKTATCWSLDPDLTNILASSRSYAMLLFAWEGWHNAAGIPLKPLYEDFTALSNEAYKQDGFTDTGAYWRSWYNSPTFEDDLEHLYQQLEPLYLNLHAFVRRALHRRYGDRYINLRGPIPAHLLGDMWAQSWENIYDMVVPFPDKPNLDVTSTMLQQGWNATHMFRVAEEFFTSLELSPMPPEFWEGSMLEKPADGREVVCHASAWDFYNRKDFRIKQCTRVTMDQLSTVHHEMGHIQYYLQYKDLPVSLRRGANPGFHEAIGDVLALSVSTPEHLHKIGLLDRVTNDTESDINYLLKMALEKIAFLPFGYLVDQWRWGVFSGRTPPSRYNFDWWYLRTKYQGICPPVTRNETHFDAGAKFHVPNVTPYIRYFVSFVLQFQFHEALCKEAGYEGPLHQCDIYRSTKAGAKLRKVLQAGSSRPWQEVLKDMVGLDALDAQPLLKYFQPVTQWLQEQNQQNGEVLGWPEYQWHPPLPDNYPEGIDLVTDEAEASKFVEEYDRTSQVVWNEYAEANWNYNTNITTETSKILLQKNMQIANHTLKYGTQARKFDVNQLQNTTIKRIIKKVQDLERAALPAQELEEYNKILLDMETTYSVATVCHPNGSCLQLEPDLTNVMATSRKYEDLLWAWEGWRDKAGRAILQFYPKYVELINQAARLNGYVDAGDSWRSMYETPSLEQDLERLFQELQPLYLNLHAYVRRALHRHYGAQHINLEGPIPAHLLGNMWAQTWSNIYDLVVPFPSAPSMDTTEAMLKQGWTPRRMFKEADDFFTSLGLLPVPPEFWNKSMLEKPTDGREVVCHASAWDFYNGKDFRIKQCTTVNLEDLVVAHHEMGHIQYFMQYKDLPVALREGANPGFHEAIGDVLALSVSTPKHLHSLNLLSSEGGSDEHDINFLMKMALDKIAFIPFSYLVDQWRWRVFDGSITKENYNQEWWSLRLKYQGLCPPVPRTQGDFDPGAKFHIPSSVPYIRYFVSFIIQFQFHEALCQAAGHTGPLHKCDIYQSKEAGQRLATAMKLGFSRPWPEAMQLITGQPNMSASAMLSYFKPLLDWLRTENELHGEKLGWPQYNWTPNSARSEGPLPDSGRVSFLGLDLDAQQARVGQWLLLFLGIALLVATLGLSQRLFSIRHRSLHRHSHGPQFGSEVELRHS

Ki [1] | Ki [2] | Structure (SMILES)
0.4 nM | – | O=C(O)CC1(C(=O)N[C@H]2Cc3ccccc3[C@H]3CCC[C@@H](C(=O)O)N3C2=O)CCCC1 (relative stereo) [100,137, [4S-[4α, 7α(R*), 12bβ]]-7-[(1-Carboxymethyl-cyclopent-1-yl)carbonylamino]-1,2,3,4,6,7,8,12b-octahydro-6-oxopyrido[2,1-a][2]benzazepine-4-carboxylic acid]
< 0.2 nM | < 104 nM | O=C(O)CC1(C(=O)N[C@H]2Cc3ccccc3[C@H]3CCC[C@@H](C(=O)O)N3C2=O)Cc2ccccc2C1 (relative stereo) [102,353, [4S-[4α, 7α(R*), 12bβ]]-7-[(2-Carboxymethyl-indan-2-yl)carbonylamino]-1,2,3,4,6,7,8,12b-octahydro-6-oxopyrido[2,1-a][2]benzazepine-4-carboxylic acid]
